From patent US20150315211A1, “SMALL MOLECULES FOR THE MODULATION OF MCL-1 AND METHODS OF MODULATING CELL DEATH, CELL DIVISION, CELL DIFFERENTIATION AND METHODS OF TREATING DISORDERS” (priority 2010, published 2015) come the findings set out here.

SMILES strings stand for the structures.

The target in test [1] is MCL-1ΔNΔC (Homo sapiens, UniProt Q07820). The test is described as follows: High-throughput competitive FP binding screen, FITC-MCL-1 SAHB/MCL-1ΔNΔC interaction. Details: the C-terminal alpha-helix was deleted from each of these constructs; GST (N, cleaved yes); made in house. The following applies: FITC-MCL-1 SAHB/MCL-1ΔNΔC interaction pair, competitive FP screen.
Chain of MCL-1ΔNΔC (Homo sapiens, UniProt Q07820) (Q07820 172-320 limits assumed, stated change not applied): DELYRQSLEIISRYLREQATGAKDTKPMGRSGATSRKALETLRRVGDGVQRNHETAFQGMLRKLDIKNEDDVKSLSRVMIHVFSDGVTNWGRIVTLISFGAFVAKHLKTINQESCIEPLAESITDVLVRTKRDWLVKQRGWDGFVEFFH
The target of test [2] is BCL-XLΔC (Homo sapiens, UniProt Q07817). In words: High-throughput competitive FP binding screen, FITC-BAD BH3/BCL-XLΔC interaction. The following applies: FITC-BAD BH3/BCL-XLΔC interaction pair, competitive FP screen.
Chain of BCL-XLΔC (Q07817 1-212 limits assumed, stated change not applied): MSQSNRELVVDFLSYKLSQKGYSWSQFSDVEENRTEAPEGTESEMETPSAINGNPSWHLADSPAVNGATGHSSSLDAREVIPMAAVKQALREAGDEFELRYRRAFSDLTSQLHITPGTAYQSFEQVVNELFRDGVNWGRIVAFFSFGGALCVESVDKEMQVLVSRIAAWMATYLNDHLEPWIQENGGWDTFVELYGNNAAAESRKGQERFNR
The test system of test [3] is MCL-1ΔNΔC. The test is described as follows: High-throughput competitive FP binding screen, FITC-MCL-1 SAHB/MCL-1ΔNΔC interaction. The following applies: selectivity for MCL-1ΔNΔC over BCL-XLΔC targeting (BCL-XL % Bound minus MCL-1 % Bound).

With `N#CC1=C(S)NC(=O)C(C#N)C12CCCCC2` (stereo not drawn), in test [1], the “MCL-1% Bound” value worked out at 39.1%. Also, the “BCL-XL % Bound” value in test [2] was 107.0%. Besides, the “Spec Values” in test [3] is given as 67.9.

For the molecule `CCOC(=O)C(C)Oc1cccc2c(=O)n(CC(=O)Nc3ccc4c(c3)CCCO4)ccc12` (stereo not drawn), in test [1], the “MCL-1% Bound” value was 34.53%. In addition, the “BCL-XL % Bound” value in test [2] is listed as 102%. The “Spec Values” in test [3] stood at 67.48.

For `COc1cc2c(O)c3c(c(-c4ccc5c(c4)OCO5)c2cc1OC)C(=O)OC3`, in test [1], the “MCL-1% Bound” value was found to be 37.92%. In addition, in test [2], the “BCL-XL % Bound” value is 104.6%. Further, in test [3], the “Spec Values” came to 66.63.

Turning to `O=C(ON1C(=O)CCC1=O)c1ccc(Cl)cc1Cl`, the “MCL-1% Bound” value in test [1] came to 30.48%. The “BCL-XL % Bound” value in test [2] came to 96.73%. Besides, in test [3], the “Spec Values” worked out at 66.25.

In the case of `Cn1cc2c(n1)-c1cc(Cl)ccc1SC2`, the “MCL-1% Bound” value in test [1] is 23.45%. Also, the “BCL-XL % Bound” value in test [2] is listed as 89.61%. In addition, in test [3], the “Spec Values” is reported as 66.16.

For the molecule `CCOC(=O)c1cc(CC)sc1NC(=O)C=C(C)C`, the “MCL-1% Bound” value in test [1] is 24.13%. For the same molecule, the “BCL-XL % Bound” value in test [2] came to 90.12%. The “Spec Values” in test [3] worked out at 66.

On to `COc1ccc(C(Nc2cc(C)ccn2)c2ccc3cccnc3c2O)cc1O` (stereo not drawn), for which the “MCL-1% Bound” value in test [1] turned out to be 27.17%. Also, in test [2], the “BCL-XL % Bound” value is on record as 93.02%. Besides, in test [3], the “Spec Values” is on record as 65.85.

With `c1cc2nsnc2c2c1Nc1nc3nonc3nc1N2`, the “MCL-1% Bound” value in test [1] is recorded as −8.097%. For the same molecule, the “BCL-XL % Bound” value in test [2] amounted to 57.68%. In test [3], the “Spec Values” was 65.78.

For `Cc1ncc(CO)c2c1Oc1nc(-c3ccccc3)[nH]c(=S)c1C2`, the “MCL-1% Bound” value in test [1] worked out at 66.14%. For the same molecule, the “BCL-XL % Bound” value in test [2] is listed as 131.2%. Further, in test [3], the “Spec Values” is listed as 65.07.

As for `CCCCc1c(C)sc(NC(=S)Nn2cnnc2)c1C(=O)OCC`, in test [1], the “MCL-1% Bound” value is given as 4.578%. In test [2], the “BCL-XL % Bound” value was determined as 69.53%. The “Spec Values” in test [3] was determined as 64.95.

Turning to `CC1CCc2c(sc3[nH]c(=S)sc(=N)c23)C1` (stereo not drawn), the “MCL-1% Bound” value in test [1] was 18.95%. Moreover, the “BCL-XL % Bound” value in test [2] is on record as 83.66%. For the same molecule, the “Spec Values” in test [3] is on record as 64.71.

For `O=C1C=Cc2ccc3c4c(ccc1c24)C=CC3=O`, the “MCL-1% Bound” value in test [1] is on record as 26.7%. For the same molecule, in test [2], the “BCL-XL % Bound” value is reported as 91.4%. Also, the “Spec Values” in test [3] was 64.7.

As for `CC1=C/C(=N\Nc2ccccc2Cl)CC1`, the “MCL-1% Bound” value in test [1] is 34.4%. Besides, the “BCL-XL % Bound” value in test [2] amounted to 99.01%. In test [3], the “Spec Values” is recorded as 64.61.

Regarding `O=C(O)c1cccc(-c2ccc(CC3Sc4ccccc4C3=O)o2)c1` (stereo not drawn), the “MCL-1% Bound” value in test [1] is 31.17%. For the same molecule, the “BCL-XL % Bound” value in test [2] came out at 95.42%. Further, in test [3], the “Spec Values” is 64.25.

Regarding `O=C(O)C1Nc2c(I)cccc2C2C=CCC12` (stereo not drawn), the “MCL-1% Bound” value in test [1] was 36.12%. Further, the “BCL-XL % Bound” value in test [2] was determined as 100.3%. Besides, the “Spec Values” in test [3] is reported as 64.16.

Consider `Cc1ccc(CCNC(=O)c2ccc3nc(-c4ccco4)c(-c4ccco4)nc3c2)cc1`, for which, in test [1], the “MCL-1% Bound” value worked out at 35.73%. Besides, the “BCL-XL % Bound” value in test [2] is listed as 99.74%. Further, the “Spec Values” in test [3] was 64.01.

As to `Clc1cccc2c(N3CCCCCC3)cnnc12`, in test [1], the “MCL-1% Bound” value amounted to 21.78%. Moreover, in test [2], the “BCL-XL % Bound” value turned out to be 85.37%. Besides, the “Spec Values” in test [3] came to 63.59.

`Cc1ccc(C)c2[nH]c(=O)c(C(c3nnnn3C3CCCC3)N3CCCC3)cc12` (stereo not drawn): the “MCL-1% Bound” value in test [1] was 39.75%. The “BCL-XL % Bound” value in test [2] is on record as 103.3%. The “Spec Values” in test [3] is listed as 63.57.

On to `CS(=O)(=O)CS(=O)(=O)NNc1ncc(C(F)(F)F)cc1Cl`, for which the “MCL-1% Bound” value in test [1] was 41.29%. Moreover, the “BCL-XL % Bound” value in test [2] came out at 104.7%. The “Spec Values” in test [3] came out at 63.45.

With `CN1C(=O)C2(NN=C(c3ccccc3)S2)c2cc(Br)ccc21` (stereo not drawn), the “MCL-1% Bound” value in test [1] turned out to be 18.57%. Further, the “BCL-XL % Bound” value in test [2] is on record as 81.72%. The “Spec Values” in test [3] was 63.14.

With `O=C(NN=C1CCCC1)c1ccccc1NS(=O)(=O)c1cccs1`, in test [1], the “MCL-1% Bound” value stood at 29.27%. The “BCL-XL % Bound” value in test [2] was 92.34%. For the same molecule, in test [3], the “Spec Values” was determined as 63.07.

For `Cc1nc2c(C(=O)NCc3ccccc3Cl)cnn2c(O)c1Cl`, the “MCL-1% Bound” value in test [1] was found to be 31.4%. The “BCL-XL % Bound” value in test [2] is given as 94.42%. In test [3], the “Spec Values” is given as 63.02.

As to `O=C(c1ccc(O)cc1)N1CCN(c2cccc(Cl)c2)CC1`, the “MCL-1% Bound” value in test [1] amounted to 27.72%. Further, in test [2], the “BCL-XL % Bound” value is recorded as 90.71%. Also, in test [3], the “Spec Values” was 62.99.

As to `O=C(c1ccccc1)c1nc2ccccc2oc1=O`, the “MCL-1% Bound” value in test [1] is recorded as −19.61%. In addition, in test [2], the “BCL-XL % Bound” value was 43.27%. For the same molecule, the “Spec Values” in test [3] was found to be 62.88.

With `CCCCn1c(=O)[nH]c(=O)c2c1nc(-c1cccs1)c(=O)n2C`, the “MCL-1% Bound” value in test [1] was found to be 6.013%. In test [2], the “BCL-XL % Bound” value was 68.85%. The “Spec Values” in test [3] came to 62.84.

Turning to `Oc1cccc(C(c2ccc3cccnc3c2O)N2CCCC2)c1` (stereo not drawn), the “MCL-1% Bound” value in test [1] was found to be 43.7%. Further, the “BCL-XL % Bound” value in test [2] amounted to 106.4%. The “Spec Values” in test [3] was 62.71.

In the case of `CCCCC(=O)Cc1ccco1`, in test [1], the “MCL-1% Bound” value is recorded as 40.94%. For the same molecule, in test [2], the “BCL-XL % Bound” value worked out at 103%. In addition, the “Spec Values” in test [3] worked out at 62.08.

Take `O=C1C=CC(=O)C(CCC2=CC(=O)C=CC2=O)=C1`: in test [1], the “MCL-1% Bound” value is listed as 31.21%. For the same molecule, in test [2], the “BCL-XL % Bound” value amounted to 93.01%. For the same molecule, the “Spec Values” in test [3] is listed as 61.8.

With `Cc1nc(COC(=O)c2cc(O)c3ccccc3c2O)cs1`, the “MCL-1% Bound” value in test [1] was determined as 39.52%. In addition, in test [2], the “BCL-XL % Bound” value is recorded as 101.3%. The “Spec Values” in test [3] worked out at 61.73.

`O=C(CSc1nc2c(sc(=S)n2Cc2ccco2)c(=O)n1-c1ccccc1)c1ccc(O)c(O)c1`: the “MCL-1% Bound” value in test [1] came out at 59.44%. For the same molecule, the “BCL-XL % Bound” value in test [2] is given as 120.9%. The “Spec Values” in test [3] was 61.48.

As to `N#C/C(=C/C=C/c1ccc(-c2cc(Cl)ccc2Cl)o1)C(N)=S`, the “MCL-1% Bound” value in test [1] came out at 18.44%. In test [2], the “BCL-XL % Bound” value is 79.39%. In test [3], the “Spec Values” is on record as 60.96.

In the case of `Cn1c(/N=C/c2c(O)ccc3ccccc23)nc2ccc(Br)cc21`, the “MCL-1% Bound” value in test [1] is −29.64%. For the same molecule, the “BCL-XL % Bound” value in test [2] stood at 31.24%. Moreover, the “Spec Values” in test [3] amounted to 60.88.

Consider `N#CC1=C(c2ccc(Cl)cc2)COC1=O`, for which the “MCL-1% Bound” value in test [1] is 27.28%. The “BCL-XL % Bound” value in test [2] worked out at 88.12%. Also, the “Spec Values” in test [3] worked out at 60.84.

Consider `O=C(CSc1nnc(-c2ccco2)c(-c2ccco2)n1)N1c2ccccc2Sc2ccc(Cl)cc21`, for which, in test [1], the “MCL-1% Bound” value was found to be 37.6%. Also, in test [2], the “BCL-XL % Bound” value worked out at 98.3%. Moreover, in test [3], the “Spec Values” came out at 60.7.

`N#C/C(=C/c1cn(Cc2ccc(C(=O)O)o2)c2ccccc12)c1ccc(F)cc1`: the “MCL-1% Bound” value in test [1] is on record as 4.673%. The “BCL-XL % Bound” value in test [2] came out at 65.03%. The “Spec Values” in test [3] was 60.36.

Consider `CS/C(=N\S(=O)(=O)c1ccccc1)NNc1ccccc1`, for which, in test [1], the “MCL-1% Bound” value is listed as 39.93%. Further, the “BCL-XL % Bound” value in test [2] came out at 99.39%. Besides, the “Spec Values” in test [3] turned out to be 59.46.

With `O=C1C=CC(=O)C(CCCCCCC2=CC(=O)C=CC2=O)=C1`, the “MCL-1% Bound” value in test [1] was 47.19%. The “BCL-XL % Bound” value in test [2] worked out at 106.5%. The “Spec Values” in test [3] amounted to 59.34.
